Experimental data from patent publication US4151278A, “Process for the preparation of an extract of Teucrium marum used in particular in therapy” (Institut de Recherches Chimiques et Biologiques Appliquees, priority 1976, dated 1979).

System: spontaneous respiration in male guinea pigs
Test: Analeptic respiratory activity after morphine depression
Assay type: in vivo
Settings: 20 mg/kg intravenously; reference; before morphine 58, 20 minutes after morphine 29
Protocol: The spontaneous respiration in male guinea pigs, weighing 400-600 g, which have been anaesthetized, is recorded by means of a tracheal probe connected to an electronic recorder.
In a first stage, the respiration is depressed by an intravenous injection of 10 mg/kg of morphine. In a second stage, 20 minutes after the morphine, the product to be studied is injected intravenously.
The respiratory rhythm is recorded before the injection of morphine, and before and 1 minute after the injection of the product to be studied.

Q: Which “respiratory rhythm 1 minute after administration of the product” value does the source give for `Cn1c(=O)c2[nH]cnc2n(C)c1=O` [theophylline] here?
A: The value was 47 pulsations/minute.
